Reference: patent US20080194585A1, “Fungicidal Pyrazine Derivatives” (priority 2005, published 2008)
Marks after values point to notes of the source that are not given here.

Tests used:
Conditions in all cases: 100 = 100% disease control, 0 = no control
Septoria tritici = experiment: Test J: wheat leaf blotch, preventive spray on wheat seedlings; format: in vivo
Source text: A dash (-) indicates no test results.

Pythium aphanidermatum = experiment: Test A: bluegrass pythium blight, preventive spray on bluegrass seedlings
Rhizoctonia oryzae = experiment: Test G: turf brown patch, preventive spray on creeping bent grass seedlings
Protocol: (the causal agent of turf brown patch) and incubated in a saturated atmosphere at 27° C. for 24 h, and then moved to a growth chamber at 27° C. for 5 days, after which disease ratings were made.

Plasmopara viticola = experiment: Test D: grape downy mildew, spray after inoculation of grape seedlings; format: in vivo
Source text: Upon removal, disease ratings were made. […] A dash (-) indicates no test results.

fusarium graminearium = experiment: Test I: wheat head scab, preventive spray on wheat seedlings
Protocol: (the causal agent of wheat head scab) and incubated in a saturated atmosphere at 20° C. for 72 h, and then moved to a growth chamber at 22° C. for 5 days, after which disease ratings were made.

[1] = test system: Erysiphe graminis f. sp. tritici; experiment: Test L: wheat powdery mildew, preventive spray on wheat seedlings
[2] = test system: Colletotrichum orbiculare; experiment: Test B: cucumber Colletotrichum anthracnose, preventive spray on cucumber seedlings
Botrytis cinerea = experiment: Test E: tomato botrytis, preventive spray on tomato seedlings
Septoria nodorum = experiment: Test H: wheat glum blotch, preventive spray on wheat seedlings
Protocol: (the causal agent of wheat glum blotch) and incubated in a saturated atmosphere at 20° C. for 48 h, and then moved to a growth chamber at 22° C. for 5 days, after which disease ratings were made.

Phytophthora infestans = experiment: whole plant or invertebrate; format: in vivo
[3] = test system: Puccinia recondita f. sp. tritici; experiment: Test K: wheat leaf rust, preventive spray on wheat seedlings

Structure (SMILES)	Test J disease control rating (Septoria tritici; 40 ppm (marked *))	Test A disease control rating (Pythium aphanidermatum; 40 ppm (marked *))	Test G disease control rating (Rhizoctonia oryzae; 40 ppm (marked *))	Test D disease control rating (Plasmopara viticola; 40 ppm (marked *))	Test I disease control rating (fusarium graminearium; 40 ppm (marked *))	Test L disease control rating ([1]; 40 ppm (marked *))	Test B disease control rating ([2]; 40 ppm (marked *))	Test E disease control rating (Botrytis cinerea; 40 ppm (marked *))	Test H disease control rating (Septoria nodorum; 40 ppm (marked *))	Test F disease control rating (Phytophthora infestans; 40 ppm (marked *))	Test K disease control rating ([3]; 40 ppm (marked *))	Test J disease control rating (Septoria tritici; 200 ppm)	Test A disease control rating (Pythium aphanidermatum; 200 ppm)	Test G disease control rating (Rhizoctonia oryzae; 200 ppm)	Test D disease control rating (Plasmopara viticola; 200 ppm)	Test I disease control rating (fusarium graminearium; 200 ppm)	Test L disease control rating ([1]; 200 ppm)	Test B disease control rating ([2]; 200 ppm)	Test E disease control rating (Botrytis cinerea; 200 ppm)	Test H disease control rating (Septoria nodorum; 200 ppm)	further results
CC[C@H](C)Cn1c(-c2ccc(F)cc2Cl)c(Cl)nc(-n2ccc(C)n2)c1=O [compound 262]	100* %	0* %	76* %	17* %	0* %	99* %	100* %	100* %	100* %	39* %	100* %	–	–	–	–	–	–	–	–	–	–
CC[C@H](C)Cn1c(-c2ccc(F)cc2Cl)c(Cl)nc(-n2cccn2)c1=O [compound 263]	100* %	0* %	84* %	0* %	0* %	98* %	100* %	100* %	100* %	68* %	100* %	–	–	–	–	–	–	–	–	–	–
CC[C@H](C)Cn1c(-c2ccc(F)cc2Cl)c(Cl)nc(N2CCC=N2)c1=O [compound 264]	100* %	0* %	0* %	0* %	0* %	83* %	81* %	99* %	0* %	80* %	91* %	–	–	–	–	–	–	–	–	–	–
CCCCn1c(-c2ccc(F)cc2Cl)c(Br)nc(N2CCC=N2)c1=O [compound 286]	37* %	0* %	0* %	0* %	0* %	0* %	0* %	97* %	0* %	41* %	0* %	–	–	–	–	–	–	–	–	–	–
O=c1c(-n2cccn2)nc(Cl)c(-c2c(F)cc(F)cc2F)n1-c1ccccc1 [compound 287]	100* %	56* %	93* %	47* %	97* %	99* %	99* %	100* %	99* %	46* %	99* %	–	–	–	–	–	–	–	–	–	–
CCC(C)Cn1c(-c2c(F)cccc2F)c(Cl)nc(C(=O)NC)c1=O (stereo not drawn) [compound 297]	–	–	–	–	–	–	–	–	–	–	–	99%	0%	78%	88%	75%	97%	73%	99%	100%	Test F disease control rating (Phytophthora infestans; 200 ppm): 92%; Test K disease control rating ([3]; 200 ppm): 98%
CCCNC(=O)c1nc(Cl)c(-c2c(F)cccc2F)n(CC(C)CC)c1=O (stereo not drawn) [compound 299]	–	–	–	–	–	–	–	–	–	–	–	100%	69%	31%	40%	100%	95%	40%	99%	99%	Test F disease control rating (Phytophthora infestans; 200 ppm): 90%; Test K disease control rating ([3]; 200 ppm): 100%
CC(C)c1c(Cl)nc(-n2cccn2)c(=O)n1Cc1ccccc1 [compound 304]	–	–	–	–	–	–	–	–	–	–	–	100%	0%	31%	0%	0%	46%	0%	99%	0%	Test F disease control rating (Phytophthora infestans; 200 ppm): 49%; Test K disease control rating ([3]; 200 ppm): 100%
Cc1ccn(-c2nc(Cl)c(C(C)C)n(Cc3ccccc3)c2=O)n1 [compound 305]	–	–	–	–	–	–	–	–	–	–	–	93%	0%	16%	0%	0%	52%	0%	99%	0%	Test F disease control rating (Phytophthora infestans; 200 ppm): 50%; Test K disease control rating ([3]; 200 ppm): 97%
CC(C)c1c(Cl)nc(-n2cccn2)c(=O)n1-c1ccccc1 [compound 306]	–	–	–	–	–	–	–	–	–	–	–	44%	0%	0%	0%	0%	0%	0%	0%	0%	Test F disease control rating (Phytophthora infestans; 200 ppm): 30%; Test K disease control rating ([3]; 200 ppm): 51%
Cc1ccn(-c2nc(Cl)c(C(C)C)n(-c3ccccc3)c2=O)n1 [compound 307]	–	–	–	–	–	–	–	–	–	–	–	20%	0%	0%	0%	49%	0%	0%	88%	0%	Test F disease control rating (Phytophthora infestans; 200 ppm): 84%; Test K disease control rating ([3]; 200 ppm): 51%
COC(=O)Cn1c(-c2c(F)cccc2F)c(Cl)nc(-n2ccc(C)n2)c1=O [compound 308]	29* %	0* %	0* %	0* %	0* %	0* %	0* %	0* %	0* %	0* %	9* %	–	–	–	–	–	–	–	–	–	–
CSCC(C)n1c(-c2c(F)cccc2F)c(Cl)nc(-n2ccc(C)n2)c1=O (stereo not drawn) [compound 309]	5* %	0* %	0* %	0* %	0* %	0* %	0* %	99* %	0* %	0* %	0* %	–	–	–	–	–	–	–	–	–	–
COCCn1c(-c2c(F)cccc2F)c(Cl)nc(-n2ccc(C)n2)c1=O [compound 310]	42* %	0* %	0* %	0* %	0* %	0* %	0* %	0* %	64* %	0* %	74* %	–	–	–	–	–	–	–	–	–	–
CSCCn1c(-c2c(F)cccc2F)c(Cl)nc(-n2ccc(C)n2)c1=O [compound 311]	74* %	0* %	0* %	0* %	0* %	0* %	0* %	94* %	0* %	0* %	74* %	–	–	–	–	–	–	–	–	–	–
COCC(C)n1c(-c2c(F)cccc2F)c(Cl)nc(-n2cccc2C#N)c1=O (stereo not drawn) [compound 312]	–	–	–	–	–	–	–	–	–	–	–	13%	0%	0%	40%	0%	0%	0%	0%	0%	Test F disease control rating (Phytophthora infestans; 200 ppm): 9%; Test K disease control rating ([3]; 200 ppm): 0%
CC(C)Cn1c(-c2c(F)cccc2F)c(Cl)nc(N2CCCC2)c1=O [compound 314]	–	–	–	–	–	–	–	–	–	–	–	0%	88%	0%	0%	18%	0%	0%	0%	0%	Test F disease control rating (Phytophthora infestans; 200 ppm): 0%; Test K disease control rating ([3]; 200 ppm): 0%
CC(C)Cn1c(C2CC2)c(Cl)nc(-n2cccn2)c1=O [compound 315]	–	–	–	–	–	–	–	–	–	–	–	7%	69%	0%	0%	0%	0%	0%	0%	0%	Test F disease control rating (Phytophthora infestans; 200 ppm): 0%; Test K disease control rating ([3]; 200 ppm): 0%
